Experimental data taken from patent US12594293B2, “Use of 6-thio-dG to treat therapy-resistant telomerasepositive pediatric brain tumors” (The Board of Regents of The University of Texas System, priority 2018, dated 2026).
Entries after “also recorded” stand apart in the source; their conditions may differ.

What was measured:
[1] = cited from earlier work
[2] = tested on: CCHMC-DIPG-1 orthotopic tumors; assay: Orthotopic patient-derived DIPG xenograft (CCHMC-DIPG-1 in pons); format: in vivo, mouse
Experimental: Mouse subcutaneous and orthotopic xenograft. Athymic Ncr-nu/nu female mice (6-7 weeks old) were subcutaneously injected with 10,000 MB004 cells. Mice were weighed and distributed in two groups (control and 6-thio-dG). After tumor-establishment (day 23-24 post-implantation) with an average volume of 100-200 mm3, mice were injected intraperitoneally (i.p) every 2 days with 6-thio-dG (2.5 mg/kg) or DMSO-PBS (vehicle) for 3-4 weeks until euthanization. Tumors were measured by slide calipers taking two longest tumor-diameters (length and width) perpendicular to each other and volumes were calculated by using the formula: (π/6)×d3, where d=mean diameter. For orthotopic xenograft, CCHMC-DIPG-1 luciferase-positive cells (10,000) were injected in the brain of NRG (NOD.Cg-Rag1tm1Mom Il2rgtm1Wjl/SzJ) mice. Briefly, mice were injected stereotactically with 2 μl medium containing 10,000 luciferase-positive cells. The coordinates for injection were 0.8-1 mm posterior to lambda suture and 3.5 mm deep, corresponding to the pons location in the brain. Tumors were visualized by luminescence using IVIS Spectrum CT in vivo imaging system (PerkinElmer). All animal procedures were approved by the Institutional Animal Care and Use Committee (IACUC) (protocol #IACUC2015-0066, CCHMC).
Immunohistochemistry. Formalin-fixed paraffin-embedded (FFPE) sections were deparaffinized in xylene followed by rehydration through a graded ethanol concentration series. Heat-induced antigen retrieval was performed by steaming slides for 20 minutes in 10 mM Citrate buffer (pH 6.0). […] Slides were washed with TBST (×3) and were treated with biotinylated anti-rabbit secondary antibody (1:500) and signal-amplified using ABC Kit (Vector Laboratories). Signal was visualized with DAB (Vector Laboratories) and counterstained with Harris Hematoxylin (Sigma). H & E staining was performed using hematoxylin-1 and eosin-Y (Thermo Scientific). Tissues were mounted with Permount (Fisher Scientific) and imaged by Nikon eclipse 80i microscope.
Tissue TIF assay. […]

SU-DIPG-VI = assay: Cell growth assay (viable cell count, trypan blue exclusion); format: cell-based; settings: Homo sapiens, 168 h, 6-thio-dG treatment for 7 days
Experimental: (§1) Cell growth and sphere formation assay. After dissociating primary neurospheres by TrypLE express (Gibco), single cells were seeded in respective growth media in 6-well plates and were incubated for one week at varying concentrations (0.5 to 10 μM) of 6-thio-dG or DMSO. Fresh culture media were added every three days. Viable cell numbers were determined by trypan blue exclusion method. For sphere formation assay, MB004 single cells were seeded in limited dilution (10 cells/well in 96-well plate) and treated with DMSO or 6-thio-dG. Sphere formation was monitored by microscopy.

[3] = tested on: ATM and ATR signaling pathways in HFF+hTERT cells; assay: Western blot of ATR-T1989 and ATM-S1981 phosphorylation; format: cell-based, human; settings: 3 μM, day 1 to 3
Experimental: (§2) Western blot. Western blot was performed as described previously (22). Antibodies used were against ATMS1981P (R & D Systems); ATM (SIGMA); ATR-T1989P (GeneTex); and ATR, CHK1-S345P, CHK1, CHK2-T68P, CHK2, Cleaved Caspase-3, and β-actin (Cell Signaling). Bands were visualized using ECL with Azurec500 imaging system (Azure Biosystems). Band intensities were quantified using ImageJ software (Ver. 1.49u, NIH, USA).

[4] = tested on: ATM and ATR signaling pathways in HFF cells; assay: as above; format: cell-based, human; settings: 3 μM, day 1 to 3
Experimental: as §2

MB004 cells [5] = assay: Sphere formation assay; format: cell-based, human; settings: 3 μM, day 7
Experimental: as §1

MB004 cells [6] = assay: Apoptosis, cleaved caspase-3; format: cell-based, human; settings: 3 μM for 4 or 7 days; data not shown
Experimental: (§3) Immunofluorescence and telomere FISH assay. Cells were fixed with 4% paraformaldehyde (PFA) for 15 minutes. Cells were then washed, permeabilized with 0.5% Triton-X-100 in PBS, blocked with 5% donkey serum and 0.3% Triton X-100 in TBS and incubated with primary antibodies against γH2A.X (1:500, rabbit), or cleaved caspase-3 (1:400, rabbit) (Cell Signaling); and/or TRF2 (1:200) (Mouse; NOVUS), as applicable, for overnight followed by TBST wash (×3) next day. Corresponding secondary antibodies were added (Alexa-Fluor 488- or 594-conjugated donkey anti-rabbit, or anti-mouse (1:500) (Jackson ImmunoResearch) for 1 hour and washed with TBS (×3) before mounting. For telomere-FISH, fixed and permeabilized cells were dehydrated with a graded ethanol concentration series, air-dried and covered with hybridization solution (70% formamide, 0.5% Blocking Reagent (Roche Diagnostics) diluted in 100 mM maleic acid and 150 mM sodium chloride, and 10 mM Tris (pH 7.5)) with 300 ng/mL PNA(CCCTAA)3-Cy3 (SEQ ID NO: 1) (Biosynthesis, USA), and denatured for 6 minutes at 84° C. followed by hybridization for at least two hours at room temperature. Cells were washed three times with 70% formamide and 10 mM Tris (pH 7.5) and three times with TBS. […]
(§4) Western blot. […] Band intensities were quantified using ImageJ software (Ver. 1.49u, NIH, USA).

CCHMC-DIPG-1 cells = assay: Apoptosis, cleaved caspase-3; format: cell-based, human; settings: 3 μM for 4 or 7 days; data not shown
Experimental: as §3, §4

MB004 = assay: Cell growth assay (viable cell count, trypan blue exclusion); format: cell-based, human
Experimental: as §1

SaOS2 = assay: as above; format: cell-based, human
Experimental: as §1

D-458 = assay: as above; format: cell-based, human
Experimental: as §1

Nc1nc2c(ncn2[C@H]2C[C@H](O)[C@@H](CO)O2)c(=S)[nH]1 [6-thio-dG, 6-thio-2′-deoxyguanosine]
animal deaths or weight loss ([1]; mice treated with 6-thio-dG, Mender et al.): no animal deaths or weight loss | toxic effects on hematologic counts, liver and kidney functions ([1]; mouse, in vivo): did not cause any toxic effects | intratumoral TIFs and genomic DNA damage ([2]; i.p., 7-8 days (4-5 doses in total), vs untreated tumors): increase in the number of cells with genomic DNA damage and TIFs | effect on normal mouse brain ([2]; intraperitoneal injection): no obvious effect on normal brain tissue; also recorded: did not observe any adverse effects | penetration to brain tumor site ([2]; intraperitoneal injection): reached the tumor in the pons; also recorded: crossed the blood-brain-barrier | IC50 (SU-DIPG-VI): 772 nM | ATR-T1989 and ATM-S1981 phosphorylation [3]: Both ATM and ATR signaling pathways were engaged | ATR / ATM pathway activation [4]: activation of the ATR pathway | sphere formation ability (MB004 cells [5]): total abolition of sphere formation ability | cleaved caspase-3 signal (apoptosis) (MB004 cells [6]): increase in cleaved caspase-3 signal | cleaved caspase-3 signal (apoptosis) (CCHMC-DIPG-1 cells): increase in cleaved caspase-3 signal | relative growth (MB004; 3 μM 2 days, then 3 days continuous or discontinuous treatment): robust growth inhibition | IC50 (MB004; Homo sapiens, 168 h, 6-thio-dG treatment for 7 days, MB004): 436 nM | IC50 (SaOS2; Homo sapiens, SAOS-2, 168 h, 6-thio-dG treatment for 7 days, SaOS2 (telomerase-negative, ALT-positive)): 7.58 µM | cell growth (SaOS2; up to 3 μM, one week): minor to no effect | cell growth (D-458; 0.5-10 μM for one week, cells at recurrence): effectively inhibited cell growth | IC50 (D-458; Homo sapiens, 168 h, 6-thio-dG treatment for 7 days, D-458 (recurrence)): 1450 nM
